Data set [1] deals with inflammatory bowel disease. To be noted: in vivo; cited from earlier work.
Data set [2] relates to aged mice. To be noted: cited from earlier work.
The conditions of data set [3]: NMN administration; cited from earlier work.
Data set [4] relates to mice with type II diabetes. To be noted: type II diabetes induced by a high-fat diet; cited from earlier work.
Data set [5] concerns aged mice. To be noted: cited from earlier work. This is another data set of the same source.
Data set [6] concerns human feces #1 to #3 (human fecal-derived gut microbiota). The experiment in a line: NMN production by human fecal cultures in GAM evaluation medium with 0.5% carbohydrate (Test Example 2). To be noted: 37 °C, anaerobic, 12 hours; for NMN Concentration (Avg Value): GAM medium, average of human feces #1 to #3, only substance of its classification; for NMN concentration in culture (FIG. 2), in words: average of human feces #1 to #3. The data set is classed as cell-based. The procedure:
1 mg of human feces (#1 to 3) collected from different individuals was added to 1 mL of GAM medium supplemented with glucose SO that the final concentration was 0.5%, and cultured at 37 °C in an anaerobic glove box for 12 hours, and then the NMN concentration in the culture solution was measured. As the GAM medium, GAM semi-fluid medium for saccharolysis (manufactured by Nissui Pharmaceutical Co., Ltd.) was dissolved in water to a predetermined concentration, filtered through a 0.8 μm filter, and autoclaved at 115 °C for 15 minutes. The NMN concentration was measured by the following method. That is, first, the supernatant obtained by centrifuging the culture solution was filtered through a 0.22 μm filter, and then the filtrate was mixed with methanol (final concentration: 80 v/v %) and allowed to stand on ice for 30 minutes. Next, the supernatant obtained by centrifuging this was dried using a centrifugal evaporator. Next, the obtained dried product was dissolved in an ammonium acetate solution and subjected to a liquid chromatograph mass spectrometer (LC-MS/MS) for analysis under the following conditions to measure the NMN concentration. (LC-MS/MS analysis conditions)
First, each evaluation medium was prepared by adding any one of the carbohydrates shown in Table 1 below to the GAM medium (without glucose added) so that the final concentration was 0.5%. As a comparative example, an evaluation medium to which distilled water (DW) was added instead of carbohydrate was also prepared. Next, 1 mg of the same human feces #1 to #3 as in Test Example 1 was added to 1 mL of the evaluation medium, and cultured at 37 °C in an anaerobic glove box for 12 hours. After culturing, the NMN concentration in the culture solution was measured by liquid chromatograph mass spectrometer (LC-MS/MS) by the method described in Test Example 1.

For data set [7] the following is noted: cited from earlier work.
In data set [8] the test system is human gut microbiota in human flora mice. The experiment in a line: NMN concentration in feces of human flora mice given kestose (Test Example 4). To be noted: 5% kestose aqueous solution ad libitum. The data set is classed as in vivo. How it is done: 1 mg of human feces (#1 to 3) collected from different individuals was added to 1 mL of GAM medium supplemented with glucose SO that the final concentration was 0.5%, and cultured at 37 °C in an anaerobic glove box for 12 hours, and then the NMN concentration in the culture solution was measured. As the GAM medium, GAM semi-fluid medium for saccharolysis (manufactured by Nissui Pharmaceutical Co., Ltd.) was dissolved in water to a predetermined concentration, filtered through a 0.8 μm filter, and autoclaved at 115 °C for 15 minutes. The NMN concentration was measured by the following method. […]
Using kestose (manufactured by Meiji Food Materia Co., Ltd.), the effect of improving NMN production in the intestine (large intestine) of human flora mice, which were germ-free mice transplanted with human gut microbiota, was evaluated. […] Next, the mixed supernatant was dried using a centrifugal evaporator, the obtained dried product was dissolved in an ammonium acetate solution, filtered through a 0.22 μm filter, and then the NMN concentration in the filtrate was measured by liquid chromatograph mass spectrometer (LC-MS/MS) by the method described in Test Example 1 to calculate the NMN concentration (ng/mL) in the feces.

Consider `NC(=O)c1ccc[n+]([C@@H]2O[C@H](COP(=O)([O-])OP(=O)(O)OC[C@H]3O[C@@H](n4cnc5c(N)ncnc54)[C@H](O)[C@@H]3O)[C@@H](O)[C@H]2O)c1` [NAD, nicotinamide adenine dinucleotide], for which the “effect in improving inflammatory bowel disease” value in data set [1] is reported as “effective in improving inflammatory bowel disease”. Consider `NC(=O)c1ccc[n+]([C@@H]2O[C@H](COP(=O)([O-])O)[C@@H](O)[C@H]2O)c1` [NMN, β-nicotinamide mononucleotide], for which, in the data set on aged mice [2], the constipation result is “improved constipation”. In addition, in data set [3], the “age-related declines in organ function and dementia of the Alzheimer type” value is “improved age-related declines in liver function, renal function, skeletal muscle function, and cardiac function, as well as dementia of the Alzheimer type”. For the same compound, in data set [4], the “gene expression related to oxidative stress, inflammatory response, and circadian rhythm” value is “restored gene expression related to oxidative stress, inflammatory response, and circadian rhythm”; the “glucose tolerance, hepatic insulin sensitivity” value is “improved glucose tolerance disorder and hepatic insulin sensitivity”. Also, the “effects of NMN administration in aged mice” value in the data set with aged mice [5] is “suppressed age-related obesity, improved energy metabolism, and improved insulin resistance, lipid metabolism, eye function, bone density, and immune function”. Also, the “age-related changes in gene expression” value with aged mice [5] (skeletal muscle, fat, and liver) is “suppression of age-related changes in gene expression in skeletal muscle, fat, and liver”. For `O=C(CO)[C@@H](O)[C@@H](O)[C@H](O)CO` [Tagatose, D-Tagatose], the “NMN Concentration (Avg Value)” value in data set [6] worked out at 100 ng/mL. For the compound `OC[C@H]1O[C@@H](O[C@H]2[C@H](O)[C@@H](O)C(O)O[C@@H]2CO)[C@H](O)[C@@H](O)[C@@H]1O` (stereo partly drawn) [cellobiose, D-Cellobiose], the “NMN concentration in culture (FIG. 2), in words” value (shortened to “NMN concentration in culture”) in data set [6] is “higher NMN concentrations than glucose and sucrose”. On to `O=C[C@H](O)[C@@H](O)[C@H](O)[C@H](O)CO` [glucose, D-Glucose], for which, in data set [7], the “absorption in the small intestine” value was “completely absorbed into the body in the small intestine”; the “decomposition and absorption in the upper digestive tract in vivo” value is “decomposed and absorbed in the upper digestive tract in vivo”.

For `OC[C@H]1O[C@@](CO)(OC[C@@]2(O[C@H]3O[C@H](CO)[C@@H](O)[C@H](O)[C@H]3O)O[C@H](CO)[C@@H](O)[C@@H]2O)[C@@H](O)[C@@H]1O` [kestose, 1-Kestose], in data set [6], the “NMN concentration in culture” value is “higher NMN concentrations than glucose and sucrose”. For the same compound, the “amount of NMN produced by human gut microbiota in vivo” value in data set [8] is on record as “increases the amount of NMN produced by human gut microbiota in vivo”. The “NMN concentration in feces vs Day 0” value in data set [8] (Day 1, 3, and 9 (FIG. 4)) was “higher on Day 1, 3, and 9”.

For the compound `OC[C@H]1O[C@@H](O[C@H]2[C@H](O)[C@@H](O)[C@@H](O[C@]3(CO)O[C@H](CO)[C@@H](O)[C@@H]3O)O[C@@H]2CO)[C@H](O)[C@@H](O)[C@H]1O` [lactosucrose, Lactosucrose], the “NMN concentration in culture” value in data set [6] is “higher NMN concentrations than glucose and sucrose”. Regarding `OC[C@H]1O[C@H](OC[C@H]2O[C@H](O[C@]3(CO)O[C@H](CO)[C@@H](O)[C@@H]3O)[C@H](O)[C@@H](O)[C@@H]2O)[C@H](O)[C@@H](O)[C@H]1O` [raffinose, Raffinose], the “NMN concentration in culture” value in data set [6] was “higher NMN concentrations than glucose and sucrose”.

Turning to `CC(=O)N[C@H]1[C@H]([C@H](O)[C@H](O)CO)O[C@@](O[C@H]2[C@@H](O)[C@@H](CO)O[C@@H](O[C@H]3[C@H](O)[C@@H](O)C(O)O[C@@H]3CO)[C@@H]2O)(C(=O)O)C[C@@H]1O` (some centres unmarked) [sialyllactose, 3′-Sialyllactose], the “NMN concentration in culture” value in data set [6] is reported as “relatively low NMN concentration”.

With `OC[C@H]1O[C@@](CO)(O[C@H]2O[C@H](CO)[C@@H](O)[C@H](O)[C@H]2O)[C@@H](O)[C@@H]1O` [sucrose, D-Sucrose], the “decomposition and absorption in the upper digestive tract in vivo” value in data set [7] was “decomposed and absorbed in the upper digestive tract in vivo”. As to `O=C[C@H](O)[C@@H](O)[C@H](O)CO` [xylose], the “absorption in the small intestine” value in data set [7] is “completely absorbed into the body in the small intestine”. Regarding inulin, the “NMN Concentration (Avg Value)” value in data set [6] worked out at 70 ng/mL.

Values taken from patent publication US20260335345A1, “COMPOSITION FOR IMPROVING NICOTINAMIDE MONONUCLEOTIDE PRODUCTION” (MEIJI HOLDINGS CO., LTD., priority 2022, published 2026).
